Laboratory results reported in ChEMBL document CHEMBL3286256 (J Med Chem, 2014).

Columns and labels:
[1] = target: T1, Retinal rod rhodopsin-sensitive cGMP 3',5'-cyclic phosphodiesterase subunit delta (Homo sapiens, UniProt O43924); experiment: Binding affinity to His6-tagged PDE-delta (unknown origin) measured every 3 mins by fluorescence polarization assay
[2] = target: T1, Retinal rod rhodopsin-sensitive cGMP 3',5'-cyclic phosphodiesterase subunit delta
Description: Binding affinity to PDE-delta (unknown origin) assessed as shift in melting temperature

T1 sequence (O43924 whole entry): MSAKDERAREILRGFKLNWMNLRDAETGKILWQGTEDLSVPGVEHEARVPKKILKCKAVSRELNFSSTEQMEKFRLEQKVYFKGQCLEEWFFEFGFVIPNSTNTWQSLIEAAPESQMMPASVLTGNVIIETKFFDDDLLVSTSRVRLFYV

## CC(C)(C)OC(=O)N1CCC(C(COc2ccc(-c3nc4ccccc4n3Cc3ccccc3)cc2)n2c(-c3ccccc3)nc3ccccc32)CC1 (stereo not given)
[1]
  Kd: > 2 µM
[2]
  ΔTm: 7.2 °C

## c1ccc(Cn2c(-c3ccc(OCC(C4CCNCC4)n4c(-c5ccccc5)nc5ccccc54)cc3)nc3ccccc32)cc1 (stereo not given)
[2]
  ΔTm: 20.5 °C

## C=CC(=O)N1CCC(c2nc3ccccc3n2Cc2ccccc2)CC1
[1]
  Kd: > 1 µM

## CC(C)c1nc(N(C)S(C)(=O)=O)nc(-c2ccc(F)cc2)c1/C=C/[C@@H](O)C[C@@H](O)CC(=O)O [ROSUVASTATIN]
[1]
  Kd: 1.25 µM
